Data taken from ChEMBL document CHEMBL1156511, “Suppressor mutations in the transmembrane segments of P-glycoprotein promote maturation of processing mutants and disrupt a subset of drug-binding sites” (J Biol Chem, 2007).
Values belong to the compound of their own block, whether it stands above or below them. Active and inactive are the calls of the source. No cut-off for these calls is given here.

Assays:
Assay type in all cases: cell-based
HEK293 [1] = experiment: Activation of ATPase activity of human Pgp TM7 Cys728 mutant expressed in HEK293 cells at 3 mM relative to control
[2] = target: ATP-dependent translocase ABCB1 (Homo sapiens, UniProt P08183, Q195C); experiment: Increase in ATPase activity of human histidine-tagged Pgp TM3 Q195C mutant expressed in HEK293 cells at 2 mM relative to control; settings: hek293, 2000 µM
Chain of ATP-dependent translocase ABCB1 (Homo sapiens, UniProt P08183, Q195C) (P08183 whole entry Q195C): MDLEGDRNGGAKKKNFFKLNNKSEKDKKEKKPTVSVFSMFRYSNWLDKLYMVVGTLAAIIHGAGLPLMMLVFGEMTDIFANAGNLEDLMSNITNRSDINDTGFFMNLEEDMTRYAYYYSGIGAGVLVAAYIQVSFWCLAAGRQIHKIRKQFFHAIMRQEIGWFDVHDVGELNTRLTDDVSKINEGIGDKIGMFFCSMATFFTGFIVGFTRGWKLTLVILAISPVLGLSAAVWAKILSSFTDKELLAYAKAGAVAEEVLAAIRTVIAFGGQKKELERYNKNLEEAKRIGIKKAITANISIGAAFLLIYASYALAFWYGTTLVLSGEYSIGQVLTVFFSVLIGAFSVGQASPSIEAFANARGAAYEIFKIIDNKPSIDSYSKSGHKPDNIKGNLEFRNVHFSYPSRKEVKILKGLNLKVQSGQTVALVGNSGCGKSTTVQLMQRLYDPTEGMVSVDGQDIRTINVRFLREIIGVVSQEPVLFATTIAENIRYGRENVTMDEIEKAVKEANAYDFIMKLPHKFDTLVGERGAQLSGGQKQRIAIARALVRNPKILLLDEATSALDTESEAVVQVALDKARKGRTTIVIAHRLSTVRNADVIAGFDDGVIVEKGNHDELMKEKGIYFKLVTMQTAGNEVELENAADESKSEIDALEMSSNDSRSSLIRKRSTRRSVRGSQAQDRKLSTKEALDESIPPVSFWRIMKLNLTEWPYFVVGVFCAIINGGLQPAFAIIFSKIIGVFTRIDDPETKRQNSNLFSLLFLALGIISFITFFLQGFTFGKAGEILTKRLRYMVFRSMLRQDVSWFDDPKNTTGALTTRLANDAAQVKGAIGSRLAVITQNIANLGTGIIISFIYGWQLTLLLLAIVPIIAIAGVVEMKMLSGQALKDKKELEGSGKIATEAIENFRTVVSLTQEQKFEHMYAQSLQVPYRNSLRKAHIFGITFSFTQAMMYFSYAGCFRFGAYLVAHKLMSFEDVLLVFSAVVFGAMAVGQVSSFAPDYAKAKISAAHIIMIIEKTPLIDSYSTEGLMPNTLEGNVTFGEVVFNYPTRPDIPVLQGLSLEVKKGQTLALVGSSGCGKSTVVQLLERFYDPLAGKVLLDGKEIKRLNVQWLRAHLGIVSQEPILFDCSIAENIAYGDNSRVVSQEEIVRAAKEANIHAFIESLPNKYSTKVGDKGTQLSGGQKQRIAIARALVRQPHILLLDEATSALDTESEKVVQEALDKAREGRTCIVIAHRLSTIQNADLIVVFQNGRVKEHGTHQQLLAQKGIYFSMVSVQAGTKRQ

[3] = target: ATP-dependent translocase ABCB1 (Homo sapiens, UniProt P08183, F728C/L339C/T199R); experiment: Inhibition of cross-linking of human Pgp TM3 T199R/TM6 L339C/TM7 F728C mutant expressed in HEK293 cells assessed as drug level causing 50% inhibition of cross linking by immunoblot; settings: read-out: Activity
[4] = target: ATP-dependent translocase ABCB1 (Homo sapiens, UniProt P08183, F728C/I306R/L339C); experiment: Inhibition of cross-linking of human Pgp TM5 I306R/TM6 L339C/TM7 F728C mutant expressed in HEK293 cells assessed as drug level causing 50% inhibition of cross linking by immunoblot; settings: read-out: Activity
[5] = target: ATP-dependent translocase ABCB1 (Homo sapiens, UniProt P08183, F343R/F728C/L339C); experiment: Inhibition of cross-linking of human Pgp TM6 F343R/TM6 L339C/TM7 F728C mutant expressed in HEK293 cells assessed as drug level causing 50% inhibition of cross linking by immunoblot; settings: read-out: Activity
HEK293 [6] = experiment: Inhibition of cross-linking of human Pgp TM6 L339C/TM7 F728C mutant expressed in HEK293 cells assessed as drug level causing 50% inhibition of cross linking by immunoblot
HEK293 [7] = experiment: Inhibition of cross-linking of human Pgp TM1 L65R/TM6 L339C/TM7 F728 mutant expressed in HEK293 cells assessed as drug level causing 50% inhibition of cross linking by immunoblot
[8] = target: T1, ATP-dependent translocase ABCB1 (Homo sapiens, UniProt P08183, C137A/C431A/C717A/C956A/C1074A/C1125A/C1227A); experiment: Increase in ATPase activity of human histidine-tagged Pgp Cys-less mutant expressed in HEK293 cells at 2 mM relative to control; settings: hek293, 2000 µM
T1 sequence (P08183 whole entry C137A/C431A/C717A/C956A/C1074A/C1125A/C1227A): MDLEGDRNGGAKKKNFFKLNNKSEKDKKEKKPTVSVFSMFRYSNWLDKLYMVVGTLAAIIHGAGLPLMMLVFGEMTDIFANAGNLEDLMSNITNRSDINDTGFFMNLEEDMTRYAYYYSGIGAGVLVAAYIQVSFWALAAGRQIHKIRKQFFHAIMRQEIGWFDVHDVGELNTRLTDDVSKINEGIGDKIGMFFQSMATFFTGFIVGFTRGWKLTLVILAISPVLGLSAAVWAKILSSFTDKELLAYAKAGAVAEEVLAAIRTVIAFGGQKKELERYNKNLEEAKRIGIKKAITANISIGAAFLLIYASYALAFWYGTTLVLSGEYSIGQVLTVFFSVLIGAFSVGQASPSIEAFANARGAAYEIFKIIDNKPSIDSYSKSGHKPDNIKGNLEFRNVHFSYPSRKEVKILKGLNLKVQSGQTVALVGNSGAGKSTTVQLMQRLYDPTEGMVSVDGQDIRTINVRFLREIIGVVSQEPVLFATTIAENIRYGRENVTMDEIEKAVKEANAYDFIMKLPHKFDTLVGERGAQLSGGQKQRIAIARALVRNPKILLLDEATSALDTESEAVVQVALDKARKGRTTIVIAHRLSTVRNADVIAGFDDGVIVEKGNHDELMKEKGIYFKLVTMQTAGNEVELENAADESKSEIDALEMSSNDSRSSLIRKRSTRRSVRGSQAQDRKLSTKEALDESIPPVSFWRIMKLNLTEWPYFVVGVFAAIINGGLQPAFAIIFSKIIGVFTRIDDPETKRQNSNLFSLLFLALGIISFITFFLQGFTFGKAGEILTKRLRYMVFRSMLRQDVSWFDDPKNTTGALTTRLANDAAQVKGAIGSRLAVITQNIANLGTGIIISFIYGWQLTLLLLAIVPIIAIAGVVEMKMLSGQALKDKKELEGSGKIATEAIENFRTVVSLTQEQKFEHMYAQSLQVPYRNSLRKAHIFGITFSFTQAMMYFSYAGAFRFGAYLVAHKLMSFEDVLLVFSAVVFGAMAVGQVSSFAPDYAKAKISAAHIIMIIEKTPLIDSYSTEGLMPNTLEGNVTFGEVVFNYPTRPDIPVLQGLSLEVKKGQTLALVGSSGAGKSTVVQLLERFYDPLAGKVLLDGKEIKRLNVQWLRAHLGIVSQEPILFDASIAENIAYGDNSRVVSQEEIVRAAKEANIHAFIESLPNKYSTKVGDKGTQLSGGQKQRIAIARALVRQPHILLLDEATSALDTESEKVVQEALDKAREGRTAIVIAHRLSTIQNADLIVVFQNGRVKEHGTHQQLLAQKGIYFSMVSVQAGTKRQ

[9] = target: ATP-dependent translocase ABCB1 (Homo sapiens, UniProt P08183, I190C); experiment: Increase in ATPase activity of human histidine-tagged Pgp TM3 I190C mutant expressed in HEK293 cells at 2 mM relative to control; settings: hek293, 2000 µM
[10] = target: ATP-dependent translocase ABCB1 (Homo sapiens, UniProt P08183, G191C); experiment: Increase in ATPase activity of human histidine-tagged Pgp TM3 G191C mutant expressed in HEK293 cells at 2 mM relative to control; settings: hek293, 2000 µM
[11] = target: ATP-dependent translocase ABCB1 (Homo sapiens, UniProt P08183, M192C); experiment: Increase in ATPase activity of human histidine-tagged Pgp TM3 M192C mutant expressed in HEK293 cells at 2 mM relative to control; settings: hek293, 2000 µM
[12] = target: ATP-dependent translocase ABCB1 (Homo sapiens, UniProt P08183, F193C); experiment: Increase in ATPase activity of human histidine-tagged Pgp TM3 F193C mutant expressed in HEK293 cells at 2 mM relative to control; settings: hek293, 2000 µM
[13] = target: ATP-dependent translocase ABCB1 (Homo sapiens, UniProt P08183, F194C); experiment: Increase in ATPase activity of human histidine-tagged Pgp TM3 F194C mutant expressed in HEK293 cells at 2 mM relative to control; settings: hek293, 2000 µM
[14] = target: ATP-dependent translocase ABCB1 (Homo sapiens, UniProt P08183, S196C); experiment: Increase in ATPase activity of human histidine-tagged Pgp TM3 S196C mutant expressed in HEK293 cells at 2 mM relative to control; settings: hek293, 2000 µM
[15] = target: ATP-dependent translocase ABCB1 (Homo sapiens, UniProt P08183, M197C); experiment: Increase in ATPase activity of human histidine-tagged Pgp TM3 M197C mutant expressed in HEK293 cells at 2 mM relative to control; settings: hek293, 2000 µM
[16] = target: ATP-dependent translocase ABCB1 (Homo sapiens, UniProt P08183, A198C); experiment: Increase in ATPase activity of human histidine-tagged Pgp TM3 A198C mutant expressed in HEK293 cells at 2 mM relative to control; settings: hek293, 2000 µM
Chain of ATP-dependent translocase ABCB1 (Homo sapiens, UniProt P08183, A198C) (P08183 whole entry A198C): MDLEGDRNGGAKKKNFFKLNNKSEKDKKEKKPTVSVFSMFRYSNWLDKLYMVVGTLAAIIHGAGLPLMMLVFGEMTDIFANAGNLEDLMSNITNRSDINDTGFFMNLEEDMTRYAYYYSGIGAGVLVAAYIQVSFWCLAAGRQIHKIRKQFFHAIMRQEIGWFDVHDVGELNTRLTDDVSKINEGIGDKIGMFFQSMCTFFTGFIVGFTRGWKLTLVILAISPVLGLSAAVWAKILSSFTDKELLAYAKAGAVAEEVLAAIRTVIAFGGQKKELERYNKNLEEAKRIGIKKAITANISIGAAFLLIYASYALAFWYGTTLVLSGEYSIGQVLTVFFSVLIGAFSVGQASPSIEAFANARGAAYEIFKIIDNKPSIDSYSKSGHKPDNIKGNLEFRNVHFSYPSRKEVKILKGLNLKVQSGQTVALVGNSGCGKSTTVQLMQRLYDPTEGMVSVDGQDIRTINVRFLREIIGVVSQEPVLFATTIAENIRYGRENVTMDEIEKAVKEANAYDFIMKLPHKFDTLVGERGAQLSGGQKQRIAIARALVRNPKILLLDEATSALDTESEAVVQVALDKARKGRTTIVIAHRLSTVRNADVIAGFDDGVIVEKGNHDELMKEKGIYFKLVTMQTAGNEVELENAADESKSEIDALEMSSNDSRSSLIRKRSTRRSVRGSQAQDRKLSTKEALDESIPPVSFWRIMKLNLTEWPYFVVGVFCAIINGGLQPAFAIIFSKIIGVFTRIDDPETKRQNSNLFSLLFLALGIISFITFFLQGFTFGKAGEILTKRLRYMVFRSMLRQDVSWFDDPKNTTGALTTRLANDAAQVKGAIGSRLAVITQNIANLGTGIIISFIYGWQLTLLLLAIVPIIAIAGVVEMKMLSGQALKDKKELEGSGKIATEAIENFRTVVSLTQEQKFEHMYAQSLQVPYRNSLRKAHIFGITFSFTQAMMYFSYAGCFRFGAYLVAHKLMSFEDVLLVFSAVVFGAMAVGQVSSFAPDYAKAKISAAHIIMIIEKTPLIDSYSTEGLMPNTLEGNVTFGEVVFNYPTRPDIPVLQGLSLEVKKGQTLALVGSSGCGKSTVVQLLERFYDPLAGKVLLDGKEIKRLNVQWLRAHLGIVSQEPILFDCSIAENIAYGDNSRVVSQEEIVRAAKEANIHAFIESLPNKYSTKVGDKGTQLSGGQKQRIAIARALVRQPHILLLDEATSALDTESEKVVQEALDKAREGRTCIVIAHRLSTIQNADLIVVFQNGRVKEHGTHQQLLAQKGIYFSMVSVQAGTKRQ

[17] = target: T2, ATP-dependent translocase ABCB1 (Homo sapiens, UniProt P08183, T199C); experiment: Increase in ATPase activity of human histidine-tagged Pgp TM3 mutant T199C expressed in HEK293 cells at 2 mM relative to control; settings: hek293, 2000 µM
T2 sequence (P08183 whole entry T199C): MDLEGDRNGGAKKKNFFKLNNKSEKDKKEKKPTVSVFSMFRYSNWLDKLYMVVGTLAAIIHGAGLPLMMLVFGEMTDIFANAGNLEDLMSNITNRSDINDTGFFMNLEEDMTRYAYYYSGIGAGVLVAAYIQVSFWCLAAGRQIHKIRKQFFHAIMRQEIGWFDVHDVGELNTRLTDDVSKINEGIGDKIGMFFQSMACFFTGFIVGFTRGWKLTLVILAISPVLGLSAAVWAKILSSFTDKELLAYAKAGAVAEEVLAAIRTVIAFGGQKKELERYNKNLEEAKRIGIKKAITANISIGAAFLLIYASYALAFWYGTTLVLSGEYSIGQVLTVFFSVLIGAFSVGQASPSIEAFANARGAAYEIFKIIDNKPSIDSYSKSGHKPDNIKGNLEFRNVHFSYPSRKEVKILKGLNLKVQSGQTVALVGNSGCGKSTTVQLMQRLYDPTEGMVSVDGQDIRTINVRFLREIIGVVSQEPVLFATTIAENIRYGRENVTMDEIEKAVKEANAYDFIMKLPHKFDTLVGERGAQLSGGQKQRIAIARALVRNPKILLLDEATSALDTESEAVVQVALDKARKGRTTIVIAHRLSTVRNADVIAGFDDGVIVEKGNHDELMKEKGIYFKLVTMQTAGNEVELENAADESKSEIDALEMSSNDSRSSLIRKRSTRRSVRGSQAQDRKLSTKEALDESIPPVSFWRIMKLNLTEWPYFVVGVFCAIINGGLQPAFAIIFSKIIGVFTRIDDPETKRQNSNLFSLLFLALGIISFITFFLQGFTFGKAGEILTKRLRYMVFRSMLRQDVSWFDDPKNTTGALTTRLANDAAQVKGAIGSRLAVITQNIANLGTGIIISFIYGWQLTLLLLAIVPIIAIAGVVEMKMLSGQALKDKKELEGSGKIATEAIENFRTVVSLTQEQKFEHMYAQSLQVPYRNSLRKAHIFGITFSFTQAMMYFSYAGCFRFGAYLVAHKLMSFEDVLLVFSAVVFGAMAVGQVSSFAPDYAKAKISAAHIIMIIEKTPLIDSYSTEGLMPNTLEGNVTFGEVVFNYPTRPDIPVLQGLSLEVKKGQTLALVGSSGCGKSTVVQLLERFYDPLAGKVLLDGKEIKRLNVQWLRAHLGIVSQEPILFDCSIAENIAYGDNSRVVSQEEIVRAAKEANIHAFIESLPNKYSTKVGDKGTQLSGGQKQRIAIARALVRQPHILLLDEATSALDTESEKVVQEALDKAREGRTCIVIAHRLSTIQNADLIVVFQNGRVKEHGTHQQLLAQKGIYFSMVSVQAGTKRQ

[18] = target: ATP-dependent translocase ABCB1 (Homo sapiens, UniProt P08183, F200C); experiment: Increase in ATPase activity of human histidine-tagged Pgp TM3 F200C mutant expressed in HEK293 cells at 2 mM relative to control; settings: hek293, 2000 µM
[19] = target: ATP-dependent translocase ABCB1 (Homo sapiens, UniProt P08183, F201C); experiment: Increase in ATPase activity of human histidine-tagged Pgp TM3 F201C mutant expressed in HEK293 cells at 2 mM relative to control; settings: hek293, 2000 µM
[20] = target: ATP-dependent translocase ABCB1 (Homo sapiens, UniProt P08183, T202C); experiment: Increase in ATPase activity of human histidine-tagged Pgp TM3 T202C mutant expressed in HEK293 cells at 2 mM relative to control; settings: hek293, 2000 µM
[21] = target: ATP-dependent translocase ABCB1 (Homo sapiens, UniProt P08183, G203C); experiment: Increase in ATPase activity of human histidine-tagged Pgp TM3 G203C mutant expressed in HEK293 cells at 2 mM relative to control; settings: hek293, 2000 µM
[22] = target: ATP-dependent translocase ABCB1 (Homo sapiens, UniProt P08183, F204C); experiment: Increase in ATPase activity of human histidine-tagged Pgp TM3 F204C mutant expressed in HEK293 cells at 2 mM relative to control; settings: hek293, 2000 µM
[23] = target: ATP-dependent translocase ABCB1 (Homo sapiens, UniProt P08183, I205C); experiment: Increase in ATPase activity of human histidine-tagged Pgp TM3 I205C mutant expressed in HEK293 cells at 2 mM relative to control; settings: hek293, 2000 µM
[24] = target: ATP-dependent translocase ABCB1 (Homo sapiens, UniProt P08183, V206C); experiment: Increase in ATPase activity of human histidine-tagged Pgp TM3 V206C mutant expressed in HEK293 cells at 2 mM relative to control; settings: hek293, 2000 µM
[25] = target: ATP-dependent translocase ABCB1 (Homo sapiens, UniProt P08183, G207C); experiment: Increase in ATPase activity of human histidine-tagged Pgp TM3 G207C mutant expressed in HEK293 cells at 2 mM relative to control; settings: hek293, 2000 µM
[26] = target: ATP-dependent translocase ABCB1 (Homo sapiens, UniProt P08183, F208C); experiment: Increase in ATPase activity of human histidine-tagged Pgp TM3 F208C mutant expressed in HEK293 cells at 2 mM relative to control; settings: hek293, 2000 µM
[27] = target: ATP-dependent translocase ABCB1 (Homo sapiens, UniProt P08183, T209C); experiment: Increase in ATPase activity of human histidine-tagged Pgp TM3 T209C mutant expressed in HEK293 cells at 2 mM relative to control; settings: hek293, 2000 µM
[28] = target: T1, ATP-dependent translocase ABCB1; experiment: Activation of ATPase activity of human histidine-tagged Cys-less Pgp mutant expressed in HEK293 cells assessed as half maximal stimulation at 110 uM; settings: hek293, 110 µM
[29] = target: T2, ATP-dependent translocase ABCB1; experiment: Activation of ATPase activity of human histidine-tagged Pgp TM3 T199C mutant expressed in HEK293 cells assessed as drug level causing maximal activation
[30] = target: T2, ATP-dependent translocase ABCB1; experiment: Activation of ATPase activity of human histidine-tagged Pgp TM3 T199C mutant expressed in HEK293 cells assessed as drug level causing half-maximal activation; settings: read-out: Activity

SMILES: COc1ccc(CC[N+](C)(CCCC(C#N)(c2ccc(OC)c(OC)c2)C(C)C)CCSS(C)(=O)=O)cc1OC (stereo not drawn)
Activity (HEK293 [1]): inactive

Activity [2]: 6.4 | IC50 [3]: 77 µM | IC50 [4]: 96 µM | IC50 [5]: 320 µM
SMILES: CCN(CC)c1ccc2c(-c3ccccc3C(=O)O)c3ccc(=[N+](CC)CC)cc-3oc2c1

SMILES: CC[C@]1(O)C[C@@H]2CN(CCc3c([nH]c4ccccc34)[C@@](C(=O)OC)(c3cc4c(cc3OC)N(C)[C@H]3[C@@](O)(C(=O)OC)[C@H](OC(C)=O)[C@]5(CC)C=CCN6CC[C@]43[C@@H]65)C2)C1
Activity (HEK293 [6]): 0.7 µM | Activity (HEK293 [7]): 40 µM

SMILES: CCN(CC)c1ccc2c(-c3ccccc3C(C)=O)c3ccc(=[N+](CC)CC)cc-3oc2c1
Activity (HEK293 [6]): 88 µM | Activity (HEK293 [7]): 65 µM

Activity [8]: < 1.5 | Activity [9]: < 1.5 | Activity [10]: < 1.5 | Activity [11]: < 1.5 | Activity [12]: < 1.5 | Activity [13]: < 1.5 | Activity [2]: < 1.5 | Activity [14]: < 1.5 | Activity [15]: < 1.5 | Activity [16]: < 1.5 | Activity [17]: < 6.7 | Activity [18]: < 1.5 | Activity [19]: < 1.5 | Activity [20]: < 1.5 | Activity [21]: < 1.5 | Activity [22]: < 1.5 | Activity [23]: < 1.5 | Activity [24]: < 1.5 | Activity [25]: < 1.5 | Activity [26]: < 1.5 | Activity [27]: < 1.5 | Activity [28]: 6.2 | Activity [29]: 2 mM | EC50 [30]: 880 µM
SMILES: CCN(CC)c1ccc2c(-c3ccc(S(=O)(=O)NCCSS(C)(=O)=O)cc3S(=O)(=O)O)c3ccc(=[N+](CC)CC)cc-3oc2c1.[Cl-]
